Tests used:
[1] = system: fatty acid translocase (FAT, CD36); experiment: Hepatic qPCR normalized to GAPDH; format: in vivo, mice; conditions: liver qPCR, vs control
From the text: (§1) Total DNA and total RNA was extracted from the mouse liver by the Wizard® Genomic DNA purification Kit (Promega) and RNeasy Mini Kit (Qiagen), respectively, according to the manufacturers instructions. Total RNA was reverse transcribed to cDNA using the Verso™ cDNA Synthesis Kit (Thermo Scientific). To generate standards for each target gene expression analysis, the DNA or cDNA region of interest was PCR-amplified and the PCR product was cloned using the pGEM-Teasy vector system (Promega). qPCR was performed with a LightCycler 480 SYBR Green I Master (Roche) and run in a LightCycler 480 system (Roche). Target mRNA was normalized to GAPDH mRNA as an internal control in each sample.

SREBP1c = experiment: Hepatic qPCR normalized to GAPDH; format: in vivo, mice; conditions: liver, vs control; same direction as microarrays
From the text: as §1

[2] = system: insulin receptor substrate 2 (IRS-2); experiment: Hepatic qPCR normalized to GAPDH; format: in vivo, mice; conditions: liver, vs control; same direction as microarrays
From the text: as §1

PPARγ = experiment: Hepatic qPCR normalized to GAPDH; format: in vivo, mice; conditions: liver qPCR, vs control
From the text: as §1

liver gene expression = experiment: Hepatic gene expression profiling by microarray; format: in vivo, mice
From the text: as §1
Expression profiling of the STAT and control animal groups (n=6 each) was performed using the Affymetrix Genechip system (Affymetrix, Santa Clara, Calif.). Total RNA quality and quantity were determined using the Agilent 2100 Bioanalyzer and Nanodrop ND-1000. Total RNA (100 ng) was used to prepare cDNA following the Affymetrix 3′IVT Express Kit labeling protocol (Affymetrix). Standardized array processing procedures recommended by Affymetrix were performed, including hybridization, fluidics processing and scanning of the Affymetrix MG-430 2.0 arrays. GeneSpring GX11 software (Agilent Technologies, Santa Clara, Calif.) was used to normalize the raw data (Affymetrix CEL files) by Robust Multichip Average algorithm (RMA).

[3] = system: butyryl coA transferase (BCoAT) gene; experiment: Degenerate quantitative PCR for BCoAT on fecal specimens; format: in vivo, mice
Experimental: (§2) Quantitative PCR assays to assess for taxa of interest were performed on a Rotor Gene 3000 quantitative PCR cycler using the LightCycler FastStart DNA Master PLUS SYBR Green I kit (Roche, Indianapolis Ind.) according to the manufacturer's instructions. Quantitative assays to assess total microbial census were performed for Bacteria using 16S rRNA and Fungi using ITS sequences. Quantitative assays were also performed for butyryl CoA transferase (BCoAT) and formyltetrahydrofolate synthetase (FTHFS). Values were normalized using total Bacterial 16S copies prior to analyses.
(§3) Because of the central role of short-chain fatty acid synthesis in colonic metabolism (Wong et al., J Clin Gastroenterol 40, 235-243 (2006)), the effect of STAT exposure on the prokaryotic genes butyryl coA transferase (BCoAT) and formyltetrahydrofolate synthetase (FTHFS) that play roles in butyrate and acetate synthesis was examined Degenerate quantitative PCRs for BCoAT and FTHFS (primers listed in Table 1) were performed on fecal specimens in STAT (penicillin) and control mice. […] These findings provide evidence that STAT exposure perturbs not only GI microbiome, composition but also abundance of genes critical to host energy homeostasis.

[4] = system: formyltetrahydrofolate synthetase (FTHFS) gene; experiment: Degenerate quantitative PCR for FTHFS on fecal specimens; format: in vivo, mice; conditions: vs control
Experimental: as §2, §3

[5] = Sub-therapeutic antibiotic treatment (STAT) in drinking water: growth and body composition by weighing, DEXA and MRI; format: in vivo, C57BL6/J mice; conditions: vs control
Experimental: Low dose penicillin (6.67 mg/L) was administered in the drinking water of C57BL6/J mice either at birth (day 0, antibiotics initially received through maternal milk) or at weaning (day 28); control mice received no antibiotics. All mice were given ad libitum access to food and water, and mice were fed either standard chow (13.5% kcal from fat) or high fat diet (45% kcal from fat). Mice were weighed daily and body composition was analyzed by dual energy x-ray absorptiometry (DEXA) and magnetic resonance imaging (MRI.)
C57B6 breeder mice (F0) were obtained at 6 weeks of age from Jackson Laboratory. One male was mated with 2 females to create the F1 generation. Males and females were separated after pregnancy was detected. On day 14 of pregnancy, STAT breeder females were exposed to penicillin so that their offspring would be exposed to antibiotics from birth; control breeders had no antibiotic exposure. From the F1 generation, penicillin-treated and control mice at or near the median weight of their group were selected at 12 weeks of age to become breeders, and to produce the F2 generation. Breeder mice and offspring were maintained on their current treatment (either control or penicillin). […]
The litters were monitored closely and the following information was collected: mating pairs, date of birth, litter number, number born, number weaned, animal number, gender, and generation number. […]
Mice were anesthetized using isofluorane. Total body mass, lean mass, fat mass, body fat percentage, and bone mineral density were measured using the Lunar PIXImus densitometer. […]
Mice were anaesthetized with isofluorane. Body temperature and breathing rate were continuously monitored throughout the scan, and body temperature was maintained by flowing warm air through the coil. […] Total body fat percentage was calculated by merging the two images to generate a fat fraction image. […] The fat volume was calculated by multiplying total volume of the VOI by the mean fat %. To determine liver adiposity, 5 consecutive slices of the liver were traced to generate a liver VOI, and the average percent fat was recorded. […]

## penicillin
[1]
  FAT normalized gene counts: significantly higher
SREBP1c
  SREBP1c qPCR result: not statistically significant
[2]
  IRS-2 qPCR result: not statistically significant
PPARγ
  PPARγ normalized gene counts: significantly higher
Liver gene expression; >45,000 genes surveyed, vs control
  Genes significantly up- or down-regulated by t-test or PTM: 466 genes
Liver gene expression; t-test and PTM
  Genes significantly differed from controls by both tests: 397 genes
Liver gene expression; vs control
  Genes differentially expressed, fatty acid metabolism pathways: 22 genes
  Genes differentially expressed, lipid metabolic processes: 47 genes
[3]; at 3 weeks
  BCoAT gene copies: 193±22 normalized copies
[3]; by 7 weeks, vs control
  BCoAT gene copies: normalized
[4]; at 3 weeks
  FTHFS gene copies: no significant differences
[4]; by 7 weeks
  FTHFS gene copies: significantly higher
[5]; F1 generation, female mice
  Weight at 21 days: significantly decreased
[5]; F1 generation, sex not given
  Weight at 21 days: no difference
[5]; F2 generation, both females and males
  Weight at 21 days: significantly increased
